According to US20090192137A1, “Dialysis method” (AstraZeneca AB, priority 1993, published 2009):

Columns and labels:
[1] = Pig study: clearance of iohexol to monitor filter clearance; assay type: in vivo; details: Swedish Land Race, plasma and dialysing solution, intravenous, 6000 mg, dialysis filter clearance, measured every half-hour, two experiments
Protocol: (§1) Before connection of the efferent and afferent blood lines, 20 mL (300 mg/mL) of iohexol (Omnipaque®, Nycomed AB, Lidingö, Sweden) was administered in the ear vein to monitor filter clearance. Two minutes before the start of dialysis, 0.15 μmol/kg of melagatran was given via the right femoral vein as a bolus.
Amounts of iohexol in plasma and dialysing solution were determined at the Laboratory of the Division of Nephrology (Sahlgren's University Hospital, Gothenberg, Sweden) using a Reanalyzer PRX 90 (Provalid AB Lund, Sweden).

[2] = Pig study: concentration of melagatran in plasma and dialysis outlet during dialysis; assay type: in vivo
Protocol: Two Swedish Land Race pigs weighing 59 and 57 kg respectively were used. Anaesthesia was induced using Ketaminol® (10 mg/kg, i.m. Veterinaria AG, Switzerland) and Dormicum® (1 to 2 mg/kg, i.m. Roche, Basel, Switzerland), followed by, after 20 minutes, Diprivan® ([…] i.v. Zeneca Limited, Macclesfield, Cheshire, United Kingdom), intubated and ventilated at 15 cycles/minute with air containing 2 to 3% Forene® (Abbott Scandinavia AB, Kista. Sweden) using a Servo Ventilator 900C (Siemens Elema, Solna, Sweden).
(§2) The anaesthetised pigs were subjected to bilateral ligation of renal arteries and veins using lateral flank approaches. The wounds were then closed and the animals were placed on their backs. Two catheters (Kimal, K41/3B/LL, Uxbridge, England) were inserted into the right femoral artery and vein for connection to the dialysis equipment. The artery catheter was used to provide blood to (efferent blood line), and the vein catheter to receive blood from (afferent blood line), the dialysis filter. One polyethylene catheter (Intramedic PE-200, Clay Adams, Parsippany, N.J., USA) was inserted into an artery (right saphenous in pig A and brachial in pig B) for blood pressure (MAP) recording (transducer Peter von Berg Medizintechnik GmbH, Kirchseeon/Eglharting, Germany) and for blood samples, pH and blood gas measurements.
(§3) Before the start of dialysis, the LunDia Pro 600 dialysis filter (Gambro, Lund, Sweden) was primed on both sides for 15 minutes with Biosol A201.5 glucose (Pharmalink, Solna, Sweden) dialysis concentrate diluted 1:35 using a Gambro AK-100 (Grambro. Lund, Sweden) haemodialysis equipment (see FIG. 5). The dialysis concentrate was supplemented with melagatran (35 μM; thus providing 1 μM after dilution). The flow rate was adjusted to 500 mL/min on the dialysing solution side and to 250 mL/min on the blood side of the membrane by separate pumps. Pressure was measured (transducer Peter von Berg Medizintechnik) on both sides of the dialysis membrane.
as §1
After connection of blood lines and two minutes after the administration of the melagatran bolus dose, dialysis was started and carried out for 3 hours. Then, the procedure was interrupted, the blood lines disconnected and the filter and blood lines washed by pumping saline instead of blood to check for the presence of macroscopic blood clots.
The amount of melagatran in plasma was quantified using liquid chromatographic and mass spectrometric methods (BA-285, AstraZeneca R&D, Mölndal, Sweden).

[3] = system: anaesthetised pigs without kidney function; assay: Pig study: prevention of coagulation and maintained filter function during haemodialysis; assay type: in vivo
Description: The aim of this study was to test whether melagatran, given via the dialysing solution during dialysis could prevent coagulation and allow a maintained filter function throughout the session in acute experiments with anaesthetised pigs without kidney function.
To avoid very early thrombotic occlusion of blood lines and filters, which, if observed, would have prevented the drawing of meaningful conclusions regarding the utility of the method, an i.v. bolus dose of melagatran was given immediately before the start of extracorporeal blood circulation in these experiments.
as §2
as §3, with “membrane. […]” for “membrane.”

thrombin [4] = biological target: T1, thrombin (Sus scrofa, UniProt Q19AZ8); details: TAS equipment, during dialysis session
Protocol: For the determination of activated partial thromboplastin time (APTT), ecarin clotting time (ECT) and the amount of melagatran in plasma, twelve aliquots of blood were drawn at specific time points into plastic tubes containing one volume of 0.13 M sodium citrate. Plasma was recovered after immediate centrifugation (10,000 g for 5 minutes) and stored at −20° C. prior to analysis. For the determination of the amount of iohexol in plasma, blood was drawn in heparinized tubes, centrifuged is (10,000 g for 5 minutes) and stored at −20° C. prior to analysis.
ECT was determined in 30 μL citrate plasma using a TAS device (Thrombolytic Assessment System, Cardiovascular Diagnostics Inc., Raleigh, N.C.) and appropriate solid reagent test cards, as recommended.

thrombin [5] = biological target: T1, thrombin; details: during dialysis session
Protocol: For the determination of activated partial thromboplastin time (APTT), ecarin clotting time (ECT) and the amount of melagatran in plasma, twelve aliquots of blood were drawn at specific time points into plastic tubes containing one volume of 0.13 M sodium citrate. Plasma was recovered after immediate centrifugation (10,000 g for 5 minutes) and stored at −20° C. prior to analysis.
APTT was determined using a KC10 A micro coagulometer (Amelung, Lemago, Germany). 25 μL of citrate plasma was incubated with 25 μL of PTT-Automate reagent (Diagnostica Stago, Asnieres, France) for 3 minutes. Coagulation was started using 25 μL of 0.025 M CaCl2 (Diagnostica Stago, Asniéres. France) and the time taken to the start of coagulation was measured.

Row | clearance [1] | concentration at 2 min ([2]; Swedish Land Race, pig, plasma, iv, 0.15 μmol/kg, start of dialysis, 2 minutes after i.v. bolus dose, both pigs, read-out: concentration of melagatran in plasma (efferent blood)) | time to equilibration ([2]; acutely anuric pig) | concentration of melagatran in the dialysis outlet, higher than on the blood side ([2]; except the very first sample at the start of dialysis) | concentration of melagatran in plasma, level-off ([2]; over the first ˜0 minutes of dialysis, then quite constant, dialysing solution 1 μM expected) | Structure (SMILES) | macroscopic thrombi in filters and tubing after dialysis ([3]; 3 hour dialysis, both pigs, washed with saline over 15 minutes) | filter function ([3]; judged from iohexol clearance, 3 hours of dialysis) | pressure in the efferent blood-line ([3]; one pig, 3 hour dialysis, stable) | ecarin clotting times (ECT), relation to drug concentration in plasma (thrombin [4]) | APTT times, relation to melagatran concentration (thrombin [5])
1 | ~150 mL/min |  |  |  |  | CC(=O)N(CC(O)CO)c1c(I)c(C(=O)NCC(O)CO)c(I)c(C(=O)NCC(O)CO)c1I (stereo not shown) [iohexol] |  |  |  |  | 
2 |  | 900 to 1000 nM | within one hour | about 0.2 μM | about 0.25 μM | N=C(N)c1ccc(CNC(=O)[C@@H]2CCN2C(=O)[C@H](NCC(=O)O)C2CCCCC2)cc1 [melagatran, HOOC—CH2—(R)Cgl-Aze-Pab-H] | macroscopic thrombi had not been formed | filter function was maintained over the full 3 hours of dialysis | about 275 mm Hg | closely reflected drug concentrations in plasma | proportional to the logarithm of melagatran concentration
